We go through 1 compound from US12351574B2, “Selective ligands for modulation of GIRK channels” (Northeastern University, priority 2018, dated 2025).

The subject of the experiment is BLA neurons (GIRK currents). Kind of experiment: whole-cell patch-clamp in acute brain slices, basolateral amygdala (BLA) neurons. The format is cell-based, rat. The following applies: for current response of BLA neurons (in words): −50 mV. Here is the method: Electrophysiological recordings from brain slices containing basolateral amygdala (BLA) neurons: Electrophysiology was performed using 150-200 g male Sprague-Dawley rats (Harlan/Envigo, Indianapolis, IN). Rats were group housed in plastic cages in standard housing conditions with ad libitum access to food and water with 12:12 light/dark cycle (lights on at 07:00 h). All experiments were conducted in accordance with the Guide for the Care and Use of Laboratory Animals (Institute for Laboratory Animal Research, The National Academies Press) and the guidelines of the IUPUI Institutional Animal Care and Use Committee. Rats were anesthetized with isoflurane and immediately decapitated. Brains were then rapidly removed, placed in ice-cold oxygenated artificial cerebrospinal fluid solution (ACSF) and coronal slices ([…]) were prepared containing the amygdala. Slices were incubated at 31° C. for 30 min and then returned to room temperature until recording. [ACSF solution in mM: 130 NaCl; 3.5 KCl; 1.1 KH2PO4; 1.3 MgCl2; 2.5 CaCl2; 30 NaHCO3; 10 glucose, 315 mOsm, 7.4 pH]. Cells were identified for recording at 40× magnification using Scientifica Slicescope microscope under DIC illumination (Scientifica, Uckfield, UK). ACSF was warmed to 30° C. and perfused at a rate of 2-3 ml/min during recordings. Compounds were added to ACSF at desired concentrations. Whole-cell patch-clamp recordings were obtained using standard techniques. Borosilicate glass electrodes (WPI, Sarasota, FL) (resistance 3-6 MΩ) were prepared and used for both recording and baclofen application. [Recording internal solution in mM: 140 K-gluconate; 2 KCl; 3 MgCl2; 10 HEPES; 5 Phosphocreatinine; 2 K-ATP; 0.2 Na-GTP, 290 mOsm, 7.4 pH]. In voltage-clamp mode, the cell was adjusted to −50 mV at the beginning of all experiments and 5 min stable baseline was established before treatment. Picospritzer II (Parker Hannifin, Hollis, NH) was utilized for local application of 100 μM GABA-B agonist baclofen in ACSF to activate GIRKs. Baseline and baclofen-induced currents were averaged from three responses per cell and analyzed using ClampFit software (Molecular Devices, San Jose, CA). […] Several control cells were subjected to baclofen at 2 min intervals for 30 min and consistent responses were observed, thus ruling out time-dependent effects.
The inventors employed whole-cell patch-clamp recording in acute brain slices to examine the effect of GAT1508. The inventors utilized brain slices that included the basolateral amygdala (BLA), a limbic structure that has been extensively described to coordinate the acquisition and expression of fear memories. […] Next, the inventors examined the response of BLA neurons to baclofen, a GABAB-receptor agonist that induces GIRK-mediated potassium currents. […]
(The patch-clamp technique gives a direct electrical read-out from membranes.)

Take `Cc1cc(NC(=O)Nc2ccc(Br)s2)n(-c2ccccc2)n1` [GAT1508, 1-(5-bromothiophen-2-yl)-3-(3-methyl-1-phenyl-1H-pyrazol-5-yl)urea]: the “current response of BLA neurons (in words)” value by setting is: (10 μM perfusion) “did not produce responses”; (30 μM perfusion) “produced significant outward current”. Further, the “effect on baclofen-induced current in BLA neurons (in words)” value (10 min perfusion of 10 μM, 100 μM baclofen puff) is “significantly potentiated baclofen-induced current”.
